Data reported in patent publication US20030166648A1, “Felbamate derived compounds” (priority 2002, published 2003).
Marks after values point to notes of the source that are not given here.

How the values were obtained:
[1] = human; cited from earlier work
[2] = test system: painful peripheral neuropathy; details: rat model of painful peripheral neuropathy; cited from earlier work
[3] = LC/MS quantification of felbamate and metabolites in patient urine; format: in vivo, human; details: highest value; patient with total daily dose of 6.0 grams of felbamate
Protocol: Preparation of Patient Urine Samples.
Urine samples were obtained from patient volunteers undergoing felbamate therapy for control of epileptic seizures and under the care of physicians at either the University of Virginia (Charlottesville, Va.) or the EpiCare Center (Memphis, Tenn.). Urine samples were diluted four fold with distilled water (this was done prior to overnight shipment for samples requiring shipping) and placed in an orbital shaking water bath for ˜20 min at 37° C. to insure that all of the analytes were in solution. 500 μL of this diluted sample were removed and added to 100 μL of a mixture of the four deuterated internal standards. […] After mixing, 200 μL were removed and added to 20 μL of 20% H0Ac. […] This fraction was then analyzed by LC/MS without further manipulation.
LC/MS Analysis of Urine Samples for Metabolite Quantification.
LC/MS analysis was performed using a Waters 2690 HPLC equipped with an autosampler and a Waters 486 tunable absorbance detector. […] The post-column flow was directed through a Waters 486 tunable absorbance detector (10 μL flow cell, λ=214 nm) which was used for qualitative assessment of the sample and not for quantitation. […]
Quantification was achieved by integration of the peaks from the mass chromatogram for each analyte using software (Navigator 1.1) provided with the LCQ. […]

[4] = Minimal neurotoxicity (TOX), positional sense and gait and stance tests, rats p.o.; format: in vivo; details: for TOX, number of animals exhibiting toxic effects/total number tested: rat p.o., 30 mg/kg
From the text: (§1) The fluoro derivatives synthesized were submitted to the National Institute of Neurological Disorders and Stroke (NINDS) for evaluation in a standard panel of assays. Two convulsant tests (MES and scMET), and a toxicity screen (rotorod in mice, positional sense and gait in rats) were employed for evaluating the compounds activity as neuroprotecting agents. These testing procedures are described in detail in Molecular and Cellular Targets for Anti-epileptic Drugs, eds. […] The felbamate derivatives were evaluated for anticonvulsant activity following intraperitoneal (i.p.) administration in mice and oral administration in rats.
Rats are examined for behavioral toxicity by the positional sense test and a gait and stance test. […] In the gait and stance test, neurotoxicity is indicated by a circular or zigzag gait, ataxia, abnormal spread of the legs, abnormal posture, tremor hyperactivity, lack of exploratory behavior, somnolence, stupor or catalepsy. […]

[5] = test system: MES-induced seizure spread; test: Maximal electroshock seizure (MES) test, rats p.o.; format: in vivo
From the text: (§2) The fluoro derivatives synthesized were submitted to the National Institute of Neurological Disorders and Stroke (NINDS) for evaluation in a standard panel of assays. Two convulsant tests (MES and scMET), and a toxicity screen (rotorod in mice, positional sense and gait in rats) were employed for evaluating the compounds activity as neuroprotecting agents. These testing procedures are described in detail in Molecular and Cellular Targets for Anti-epileptic Drugs, eds. G. Avanzini, G. Regesta, P. Tanganelli, M. Avoli, 1997, John Libbey & Company Ltd, pp 191-198. The felbamate derivatives were evaluated for anticonvulsant activity following intraperitoneal (i.p.) administration in mice and oral administration in rats.
(§3) The Maximal Electroshock Seizure (MES)
(§4) The MES test is a model for generalized tonic-clonic seizures and is used to identify compounds which prevent seizure spread. The behavioral and electrographic seizures generated in this model are consistent with the human disorder. In the MES test, an electrical stimulus of 0.2 s in duration (50 mA in mice and 150 mA in rat at 60 Hz) was delivered via corneal electrodes primed with an electrolyte solution containing an anesthetic agent. Mice were tested at 30 minutes and 4 hours following doses of 30, 100 and 300 mg/kg of test compound. Rats were tested at time intervals between 0.25 and 4 hours following a standard oral dose of 30 mg/kg. Abolition of the hindlimb tonic extensor component indicates the test compound's ability to inhibit MES-induced seizure spread.
(§5) For the MES and scMET tests the data is presented in the form of the number of animals protected by the administered compound/total number of animals tested. […] Qualitative data was obtained for fluoro felbamate 12 (Tables 1 and 2A), fluoro monocarbamate felbamate 13 (Tables 1 and 2B), and fluorodioxo 16 (Tables 1 and 2C) and for cyclic felbamate 21 (Tables 5 and 6B) and cyclic monocarbamate 22 (Tables 5 and 6A). More extensive quantitative data was also obtained for fluoro felbamate 12 in mice (Table 3) and rats (Table 4).

seizures = test: NINDS anticonvulsant panel (MES, scMET), overall statements; format: in vivo
From the text: as §2, §5

[6] = test system: MES-induced seizure spread; test: Maximal electroshock seizure (MES) test, mice i.p.; format: in vivo; details: mice, 30 mg/kg, at both 30 minutes and 4 hours
From the text: as §2, §3, §4, §5

[7] = Toxicity, oral administration to mice; format: in vivo; details: doses up to 218 mg/kg
Protocol: Toxicity induced by a compound is detected in mice using the standardized rotorod test described by Dunham & Miya (1957). Untreated control mice, when placed on a 6 r.p.m. rotation rod, can maintain their equilibrium for a prolonged period of time.
Toxicity across time doe not occur until dosages of 300 mg/kg. […] Quantitative results obtained for fluoro felbamate 12 in mice indicated a MES ED50 of approximately 20 mg/kg with a safety ratio of at least five (see Table 3). Results obtained for oral administration of fluoro felbamate 12 to rats indicated a MES ED50 of about 3 mg/kg with no toxicity at doses up to 500 mg/kg.

[8] = Minimal neurotoxicity (TOX), rotorod test, mice i.p.; format: in vivo; details: for TOX, number of animals exhibiting toxic effects/total number tested: mice i.p.
From the text: as §1, with “rats. […]” for “rats.”

[9] = test system: focal seizures of hippocampal kindled rats; test: Hippocampal kindling model (kindled rats), i.p.; format: in vivo, Sprague-Dawley rats; details: 100 mg/kg
From the text: The Hippocampal Kindling Model
The hippocampal kindling model can be used to evaluate a compound's ability to affect both the expression and acquisition of focal seizures. The hippocampal kindling paradigm as described by Lothman and Williamson (Lothman, 1994) allows the temporal effects of a drug to be evaluated in a single animal. This procedure requires the surgical placement of bipolar electrodes in the ventral hippocampus of adult male Sprague-Dawley rats. Stage five behavioral seizures are produced by using a stimulus consisting of a 50 Hz, 10 s train of 1 ms biphasic 200 uA pulses delivered every 30 min for 6 hours (12 stimuli per day) on alternating days for a total of 60 stimulations (five stimulus days). Prior to evaluating a candidate's anticonvulsant activity, a drug free control period consisting of supramaximal stimulations are recorded to verify the stability of a stage five generalized seizure.
A single dose of the candidate compound is then administered intraperitoneally (i.p.), 15 min following the last control stimulation. The anticonvulsant activity of the drug is assessed every 30 min for three to four hours starting 15 min after administering the test material. After each stimulation, individual Racine seizure scores and afterdischarge durations are recorded. Rats are used again in drug trials after four to five drug- and stimulus-free days.

[10] = Stability of oxazinane-dione at relevant pH; format: physicochemical
From the text: It is anticipated, therefore, that the oxazinane-dione 9 is responsible for some aspects of felbamate's efficacy in vivo. As patients undergoing felbamate therapy for seizure control ingest large quantities of felbamate (grams per day), even a 1-2% conversion to a pharmacologically active metabolite could have significant effects. […] In light of the possibility that the oxazinane-dione 9 could be a metabolic precursor to the major human metabolite, acid carbamate 4, it may be formed in significant quantities (the acid carbamate was reported to represent ˜ 12% of a dose). […] Also included in this class are cyclic congeners 21 and 22, which may be formed from felbamate derivatives (see scheme II). Also included is 20, which may be an unknown metabolite of felbamate 1 and could be produced from felbamate derivative 12 by the cytochrome P450 metabolism.

NC(=O)CC(C(=O)O)c1ccccc1 (stereo not drawn) [acid carbamate 4, 3-carbamoyl-2-phenylpropionic acid]
fraction of a felbamate dose found as acid carbamate [1]: ~12%

NC(=O)OCC(COC(N)=O)c1ccccc1 [felbamate, 2-phenyl-1,3-propanediol dicarbamate]
effect on measures of pain (in words) [2]: significant reductions in all measures of pain | amount of felbamate excreted per mL of urine [3]: 10,064±515 nMoles/mL

NC(=O)OCC(F)(COC(N)=O)c1ccccc1 [fluoro felbamate, 2-Fluoro-2-phenyl-1,3-propanediol dicarbamate]
toxicity ([4]; oral administration to rats, doses up to 500 mg/kg): no toxicity | TOX, number of animals exhibiting toxic effects/total number tested ([4]; 0.25 h): 0/4 | TOX, number of animals exhibiting toxic effects/total number tested ([4]; 0.5 h): 0/4 | TOX, number of animals exhibiting toxic effects/total number tested ([4]; 1.0 h): 0/4 | TOX, number of animals exhibiting toxic effects/total number tested ([4]; 2.0 h): 0/4 | TOX, number of animals exhibiting toxic effects/total number tested ([4]; 4.0 h): 1/4 | MES ED50 ([5]; rat, p.o.): 3.0 mg/kg | MES protection (in words) ([5]; rats p.o., 30 mg/kg, over several timepoints): full protection | anti-seizure activity (in words) (seizures; overall statement): show anti-seizure activity | activity relative to felbamate (times more active) (seizures; test not specified): 5-10 times | MES protection (in words) [6]: MES protective effects | toxicity [7]: no toxicity | TOX, number of animals exhibiting toxic effects/total number tested ([8]; 3 mg/kg, 0.5 h): 0/4 | TOX, number of animals exhibiting toxic effects/total number tested ([8]; 3 mg/kg, 4.0 h): 0/4 | TOX, number of animals exhibiting toxic effects/total number tested ([8]; 10 mg/kg, 0.5 h): 0/4 | TOX, number of animals exhibiting toxic effects/total number tested ([8]; 10 mg/kg, 4.0 h): 0/4 | TOX, number of animals exhibiting toxic effects/total number tested ([8]; 30 mg/kg, 0.5 h): 1/4 | TOX, number of animals exhibiting toxic effects/total number tested ([8]; 30 mg/kg, 4.0 h): 0/2 | TOX, number of animals exhibiting toxic effects/total number tested ([8]; 100 mg/kg, 0.5 h): 4/8 | TOX, number of animals exhibiting toxic effects/total number tested ([8]; 100 mg/kg, 4.0 h): 0/4 | TOX, number of animals exhibiting toxic effects/total number tested ([8]; 300 mg/kg, 0.5 h): 4/4 | TOX, number of animals exhibiting toxic effects/total number tested ([8]; 300 mg/kg, 4.0 h): 2/2 | safety ratio ([8]; mice, relative to MES ED50): at least five | effect on afterdischarge duration (in words) [9]: corresponding decrease in afterdischarge duration | effect on seizure score (in words) [9]: significant drop in seizure score | Number Protected / Number Tested ([9]; Dose Responses, i.p.): 7/8^a

O=C1NC(=O)C(c2ccccc2)CO1 (stereo not drawn) [oxazinane-dione 9]
stability [10]: unstable
